Patent publication EP4670722A1, “PROPHYLACTIC OR AMELIORATING AGENT FOR CELL AGING” (Kyowa Pharma Chemical Co., Ltd., priority 2023, dated 2024)

Assays:
GLS1 = GLS1 expression analysis (Western blot) in dermal fibroblasts cultured with medium of hydrogen peroxide-treated cells; assay type: cell-based, Human; conditions: dermal fibroblasts NB1RGB, 50 µg/mL to 200 µg/mL, 24 hours, protein level vs β-actin; effect increased as content increased; Fig. 4
Protocol: Human normal dermal fibroblasts (NB1RGB, PDL of 30 or less) were cultured using DMEM containing 10% FBS. The cultured cells were collected by trypsin treatment. The collected cell-containing liquid was diluted with DMEM containing 10% FBS to a cell concentration of 5.0 x 10^5 cells, seeded in a 10 cm dish, and cultured until 60% confluent. Thereafter, the cultured cells were subjected to a treatment of exposure to a medium containing 50 µM hydrogen peroxide (FBS-free) for 2 hours once a day for 3 days. Then, the medium was replaced with DMEM containing 5% FBS, and after 2 days, the medium (medium A) was collected. Dermal fibroblasts not exposed to hydrogen peroxide were diluted with DMEM containing 10% FBS to a concentration of 5.0 x 10^5 cells, seeded in a 10 cm dish, and cultured for 24 hours. […]
The dermal fibroblasts prepared in [Example 3-1] were diluted with DMEM medium containing 10% FBS to a concentration of 8.0 x 10^4 cells, seeded in a 6-well plate, and cultured until 80% confluent. […] The extracted proteins were quantified by the Bradford assay.
Except that no test sample was added, skin fibroblasts prepared in [Example 3-1] and skin fibroblasts cultured using DMEM containing 10% FBS were cultured in the same manner as in [Example 3-2], and proteins were extracted. The extracted proteins were quantified by the Bradford assay. […]

[1] = test system: Human normal dermal fibroblasts (NB1RGB) with a PDL of 30 or less; assay: Cell viability (Cell Counting Kit-8) of tunicamycin-treated dermal fibroblasts; assay type: cell-based; conditions: NB1RGB PDL of 30 or less, tunicamycin 0.3 µg/mL, 50 µg/mL to 200 µg/mL, 24 hours; effect increased as content increased; Fig. 6
Protocol: Human normal dermal fibroblasts (NB1RGB) with a PDL of 30 or less were cultured using DMEM containing 10% FBS. The cultured cells were collected by trypsin treatment. The collected cells were seeded in a 96-well plate, and when they reached 100% confluence, tunicamycin was added at 0.3 µg/mL, and the cells were cultured for 24 hours. A group was also prepared in which FBS-free DMEM medium containing a test sample (2'-fucosyllactose) at 50 µg/mL, 100 µg/mL, or 200 µg/mL was added simultaneously with tunicamycin, and cultured for 24 hours. After completion of culture, the viability of human normal dermal fibroblasts was evaluated using Cell Counting Kit-8 (manufactured by Dojindo Laboratories). The measurement wavelength (As) was set to 450 nm, and the reference wavelength was set to 620 nm.
Human normal dermal fibroblasts with a PDL of 30 or less were cultured and the absorbance at a measurement wavelength of 450 nm was measured in the same manner as in Example 5-1, except that tunicamycin and the test sample were not added. The obtained absorbance was designated as Ab, and the cell viability represented by the above formula (1) was determined.

laminin = assay: Laminin secretion amount (ELISA) of tunicamycin-treated dermal fibroblasts; assay type: cell-based, Human; conditions: NB1RGB PDL of 30 or less, tunicamycin 0.3 µg/mL, 50 µg/mL to 200 µg/mL, 24 hours; recovery increased as content increased; Fig. 8
Protocol: Human normal dermal fibroblasts (NB1RGB) with a PDL of 30 or less were cultured using DMEM containing 10% FBS. The cultured cells were collected by trypsin treatment. The collected cells were seeded in a 24-well plate, and when they reached 100% confluence, tunicamycin at 0.3 µg/mL was added, and the culture supernatant was collected after 24 hours. A group was also prepared in which FBS-free DMEM medium containing the test sample (2'-fucosyllactose) at 50 µg/mL, 100 µg/mL, or 200 µg/mL was added simultaneously with tunicamycin, and the culture supernatant was collected after 24 hours. The culture supernatant was centrifuged, and the resulting supernatant was used as a sample. […] This total cell protein concentration was measured by the Bradford assay.
Human normal dermal fibroblasts with a PDL of 30 or less were cultured in the same manner as in Example 7-1, except that tunicamycin and the test sample were not added, and the culture supernatant was collected. […] This total cell protein concentration was measured by the Bradford assay.
An Enzyme-Linked Immunosorbent Assay (ELISA) method was performed using an antibody against laminin to measure the amount of laminin in the samples. […] After stopping the reaction, the absorbance at a measurement wavelength of 450 nm was measured using a microplate reader. […]

## C[C@@H]1O[C@@H](O[C@H]2[C@H](O[C@H]3[C@H](O)[C@@H](O)C(O)O[C@@H]3CO)O[C@H](CO)[C@H](O)[C@@H]2O)[C@@H](O)[C@H](O)[C@@H]1O (stereo partly drawn) [2'-FL, 2'-fucosyllactose]
GLS1
  expression of GLS1: suppressed the expression of GLS1
[1]
  endoplasmic reticulum stress (cell viability): ameliorated endoplasmic reticulum stress
laminin
  laminin secretion: restored laminin secretion
